Calls of active or inactive are those of the source. No cut-off for these calls is given here.

In assay [1] the target is T1, D(1A) dopamine receptor (Homo sapiens, UniProt P21728). Put plainly: Displacement of [3H]SCH-23390 from human cloned D1 dopamine receptor incubated for 90 mins by radioligand binding assay.
The target of assay [2] is T2, D(2) dopamine receptor (Homo sapiens, UniProt P14416). Put plainly: Displacement of [3H]spiperone from human cloned D2 dopamine receptor incubated for 90 mins by radioligand binding assay. On the technique in general: In a radioligand displacement assay an active substance lowers the binding of a labelled ligand.
Assay [3] addresses T3, D(3) dopamine receptor (Homo sapiens, UniProt P35462). Put plainly: Binding affinity to human cloned D3 dopamine receptor incubated for 90 mins by radioligand binding assay.
Assay [4] addresses T4, D(4) dopamine receptor (Homo sapiens, UniProt P21917).
T4 sequence (P21917 whole entry): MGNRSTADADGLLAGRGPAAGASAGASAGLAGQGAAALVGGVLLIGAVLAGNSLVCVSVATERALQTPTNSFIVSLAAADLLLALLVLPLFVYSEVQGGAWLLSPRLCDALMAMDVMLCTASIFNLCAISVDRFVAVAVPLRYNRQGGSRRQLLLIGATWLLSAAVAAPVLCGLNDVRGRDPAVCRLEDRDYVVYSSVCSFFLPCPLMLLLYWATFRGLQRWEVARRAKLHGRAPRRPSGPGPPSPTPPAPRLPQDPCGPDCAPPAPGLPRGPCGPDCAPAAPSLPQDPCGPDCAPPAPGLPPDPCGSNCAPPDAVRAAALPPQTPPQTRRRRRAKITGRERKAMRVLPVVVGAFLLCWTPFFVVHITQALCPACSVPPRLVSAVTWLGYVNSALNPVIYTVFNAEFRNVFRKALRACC
Put plainly: Binding affinity to human cloned D4 dopamine receptor incubated for 90 mins by radioligand binding assay.

Assay [5] concerns the target T5, D(1B) dopamine receptor (Homo sapiens, UniProt P21918). Put plainly: Binding affinity to human cloned D5 dopamine receptor incubated for 90 mins by radioligand binding assay.
In assay [6] the target is T1, D(1A) dopamine receptor. Put plainly: Antagonist activity at human D1 dopamine receptor expressed in HEK293 cells assessed as inhibition of SKF38393-induced intracellular calcium level preincubated at 10 uM by oregon green staining based microplate fluorescence reader analysis. In kind it is functional, cell-based.
The target of assay [7] is T2, D(2) dopamine receptor. Put plainly: Antagonist activity at human D2L dopamine receptor expressed in HEK293 cells assessed as inhibition of quinpirole-induced intracellular calcium level preincubated at 10 uM by oregon green staining based microplate fluorescence reader analysis. In kind it is functional, cell-based.
Assay [8] has as its target T5, D(1B) dopamine receptor. Put plainly: Antagonist activity at human D5 dopamine receptor expressed in HEK293 cells assessed as inhibition of SKF38393-induced intracellular calcium level preincubated at 10 uM by oregon green staining based microplate fluorescence reader analysis. In kind it is functional, cell-based. (In general: A change in cytosolic calcium serves as a functional read-out for many receptors and channels.)

The species entered for assay [9] is Homo sapiens. Put plainly: Selectivity index, ratio of Ki for human cloned D1 dopamine receptor to Ki for human cloned D5 dopamine receptor.
In assay [10] the target is T1, D(1A) dopamine receptor. Put plainly: Displacement of [3H]SCH-23390 from human cloned D1 dopamine receptor expressed in HEKT cells incubated for 90 mins by scintillation counting based radioligand binding assay. In kind it is cell-based.
For assay [11], the target named is T3, D(3) dopamine receptor. Put plainly: Displacement of [3H]N-methylspiperone from human cloned D3 dopamine receptor expressed in HEKT cells incubated for 90 mins by scintillation counting based radioligand binding assay. In kind it is cell-based.
Assay [12] concerns the target T4, D(4) dopamine receptor.
Assay [13] addresses T5, D(1B) dopamine receptor. Put plainly: Displacement of [3H]SCH-23390 from human cloned D5 dopamine receptor expressed in HEKT cells incubated for 90 mins by scintillation counting based radioligand binding assay. In kind it is cell-based.

T3 sequence (P35462 whole entry): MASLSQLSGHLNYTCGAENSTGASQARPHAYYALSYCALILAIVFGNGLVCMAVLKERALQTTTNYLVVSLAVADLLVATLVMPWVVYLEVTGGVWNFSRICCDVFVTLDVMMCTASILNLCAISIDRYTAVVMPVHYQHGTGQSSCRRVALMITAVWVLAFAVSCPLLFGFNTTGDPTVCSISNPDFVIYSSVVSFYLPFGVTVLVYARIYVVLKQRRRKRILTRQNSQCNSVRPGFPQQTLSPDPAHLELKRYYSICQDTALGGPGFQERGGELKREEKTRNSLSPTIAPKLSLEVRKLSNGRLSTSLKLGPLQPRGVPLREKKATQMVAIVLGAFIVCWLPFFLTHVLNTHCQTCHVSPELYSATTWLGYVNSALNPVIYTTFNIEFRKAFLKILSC
T1 sequence (P21728 whole entry): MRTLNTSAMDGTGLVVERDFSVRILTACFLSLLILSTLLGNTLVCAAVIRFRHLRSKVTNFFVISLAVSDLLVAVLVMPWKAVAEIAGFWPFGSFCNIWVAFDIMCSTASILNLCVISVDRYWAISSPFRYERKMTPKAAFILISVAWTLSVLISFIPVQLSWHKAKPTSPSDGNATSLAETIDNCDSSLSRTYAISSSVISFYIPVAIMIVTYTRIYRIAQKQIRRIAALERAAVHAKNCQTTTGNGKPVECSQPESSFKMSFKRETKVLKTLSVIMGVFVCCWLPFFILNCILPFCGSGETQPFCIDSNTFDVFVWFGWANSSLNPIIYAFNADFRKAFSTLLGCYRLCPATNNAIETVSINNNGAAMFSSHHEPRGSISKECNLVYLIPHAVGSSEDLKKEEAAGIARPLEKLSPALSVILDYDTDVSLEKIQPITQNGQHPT
T2 sequence (P14416 whole entry): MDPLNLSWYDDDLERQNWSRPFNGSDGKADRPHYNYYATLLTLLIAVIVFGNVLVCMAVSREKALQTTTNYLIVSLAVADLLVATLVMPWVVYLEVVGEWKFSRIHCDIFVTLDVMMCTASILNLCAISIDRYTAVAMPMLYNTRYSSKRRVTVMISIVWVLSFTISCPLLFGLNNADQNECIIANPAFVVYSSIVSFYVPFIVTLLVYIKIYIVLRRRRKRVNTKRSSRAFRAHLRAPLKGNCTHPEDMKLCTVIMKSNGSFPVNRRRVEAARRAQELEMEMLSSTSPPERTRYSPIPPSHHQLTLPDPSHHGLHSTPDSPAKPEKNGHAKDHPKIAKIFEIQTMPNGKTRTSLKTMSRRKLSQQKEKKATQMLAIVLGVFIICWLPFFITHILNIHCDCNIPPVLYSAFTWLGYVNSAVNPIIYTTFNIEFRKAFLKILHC
T5 sequence (P21918 whole entry): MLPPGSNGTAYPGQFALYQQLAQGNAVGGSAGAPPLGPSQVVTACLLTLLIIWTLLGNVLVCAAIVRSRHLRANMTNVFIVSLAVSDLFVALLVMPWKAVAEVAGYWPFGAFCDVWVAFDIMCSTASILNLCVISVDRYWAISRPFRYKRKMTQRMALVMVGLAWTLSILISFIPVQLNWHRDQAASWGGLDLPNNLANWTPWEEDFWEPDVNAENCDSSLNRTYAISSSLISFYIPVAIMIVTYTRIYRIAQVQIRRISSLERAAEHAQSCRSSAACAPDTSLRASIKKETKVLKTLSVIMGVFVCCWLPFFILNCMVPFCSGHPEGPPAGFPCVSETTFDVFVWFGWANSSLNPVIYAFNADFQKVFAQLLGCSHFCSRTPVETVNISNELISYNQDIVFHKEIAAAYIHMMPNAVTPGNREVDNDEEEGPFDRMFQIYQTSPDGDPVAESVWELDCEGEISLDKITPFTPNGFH

As to `CN1CCc2ccccc2Cc2sc3ccccc3c2CC1`, the Ki (in general, a measure of affinity in units of concentration, obtained from inhibition or displacement) was found to be 0.04 µM in assay [1]; 0.0015 µM in [2]; 0.018 µM in assay [3]; 0.072 µM in assay [4]; 0.0019 µM in assay [5]. Besides, the inhibition entry in [6], in [7] and in [8] was “Active” throughout. In addition, the Ratio Ki in assay [9] amounted to 20.

`CCOC(=O)N1CCc2ccccc2Cc2sc3ccccc3c2CC1`: the Ki in [1], in assay [2], in [3], in assay [4] and in assay [5] was over 1 µM throughout.

With `CCOC(=O)N1CCc2ccccc2Cc2sccc2CC1`, the inhibition constant Ki in [1], in assay [2], in assay [3], in [4] and in assay [5] was over 1 µM each time.

As for `CCOC(=O)N1CCc2ccccc2Cc2ccsc2CC1`, the Ki in [1], in [2], in [3], in assay [4] and in [5] was over 1 µM throughout.

On to `CN1CC2c3ccccc3Oc3ccc(Cl)cc3C2C1` (configuration not stated) [ASENAPINE], for which the Ki in assay [10] is 0.0089 µM; in assay [11], 0.0094 µM; in assay [12], 0.009 µM.

Consider `Cc1cc2c(s1)Nc1ccccc1N=C2N1CCN(C)CC1` [OLANZAPINE], for which the Ki in [13] was determined as 0.09 µM.

As to `CN1CCc2ccccc2Cc2sccc2CC1`, the Ki in [1] was determined as 0.06 µM; in assay [2], 0.045 µM; in [3], 0.024 µM; in [4], 0.188 µM; in assay [5] it was 0.003 µM. Further, the inhibition entry in assay [6], in assay [7] and in [8] was “Active” in each case. Also, the Ratio Ki in assay [9] came to 20.

For the origin of these results see ChEMBL document CHEMBL3751719, “D1-like receptors distinguishing thieno-azecine regioisomers” (Medchemcomm, 2015).
